Experimental data from PMC5216877, “Exploring conformational equilibria of a heterodimeric ABC transporter” (eLife, 2017).
Where two headings read alike, the source gives them in different places. Marks after values point to notes of the source that are not given here.

Tests used:
[1] = molecular target: T1, TM287/288 (Thermotoga maritima, UniProt Q9WYC3+Q9WYC4, C28S/C496S/C519S/C558S/C73S); assay: ATPase activity of detergent-purified wildtype TM287/288 (molybdate/malachite green phosphate detection); format: biochemical; settings: for Km: read-out: Km for ATP
[2] = molecular target: T1, TM287/288; assay: Inhibition of ATPase activity of TM287/288 by vanadate and nucleotides; format: biochemical; settings: for IC50: 500 µM ATP, read-out: IC50; for Ki: calculated from IC50 and Km, read-out: Ki
Experimental: Nucleotide binding and hydrolysis follow a complex mechanism in heterodimeric ABC exporters, due to the existence of a degenerate and a consensus site in the NBDs. […] Using the relation IC50=Ki(1+[S]/Km), Ki values for the respective nucleotides were determined (Table 2). […] It is well established that ATPγS is slowly hydrolyzed by ATPases, as for example the F1Fo-ATPase ([Turina and Capaldi, 1994]). […] It is reasonable to assume that TM287/288 is as well capable of slow ATPγS hydrolysis. In addition, we tested whether TM287/288 hydrolyzes AMP-PNP. In contrast to ATPγS, hydrolysis of AMP-PNP releases Pi, which can be detected by the molybdate/malachite green method.
(§1) in which f corresponds to the ATPase activity at the respective inhibitor concentration divided by the ATPase activity in the absence of inhibitor normalized to 100%, y0 corresponds to the residual activity at infinite inhibitor concentration, a corresponds to the maximal degree of inhibition (a+y0=100%) and x corresponds to the inhibitor concentration.
(§2) Ki values were calculated according to the formula Ki=IC50/(1+[S]/Km)
(§3) IC50 and Km values were obtained from data fitting as outlined above.
(§4) Standard errors for the Ki values were calculated by error propagation: σKi = (Km/Km+[S])^2 σIC502+ ([S]IC50/(Km+[S])^2)^2 σKm2
(§5) in which the σIC50 and σKm are standard errors obtained from data fitting in SigmaPlot and σKi is the standard error for Ki .

[3] = molecular target: T2, BmrCD (Bacillus subtilis, UniProt O07549+O07550, C154A/C256A/C351A); assay: Inhibition of ATPase activity of BmrCD by nucleotide analogs; format: biochemical; settings: BmrCD, 25°C
T2 construct: made in house; host or cells: E. coli MC1061
Experimental: as §1, §2, §3, §4, §5

[4] = test system: TM287/288; assay: DEER two-Gaussian fit of IF/OF populations, wildtype TM287/288; set-up: species or system Thermotoga maritima; settings: estimated errors 10%
Experimental: (§6) All nucleotides and nucleotide analogs used in this study were added at saturating conditions well above their Ki values (Table 2). […] Therefore, the IF/OF fractions detected in the sample reflect the average life time that the nucleotide-bound transporter spends in either conformation. To rank the nucleotides in terms of their ability to support the transition to the OF conformation, we used three representative pairs in the wildtype transporter and the E-to-Q mutant: one in the extracellular region (50^TM287/271^TM287), one in the intracellular region (131^TM288/248^TM288) of the TMDs, and one in the NBDs (460^TM287/363^TM288) for which the distance peaks corresponding to the two states were distinguishable. A two-Gaussian fit of the DEER traces was performed to obtain the area of the corresponding IF and OF distance peaks (Figure 5—source data 1). The rank of nucleotides with respect to increasing fractions of the OF populations (Figure 5A) was: ADP-Mg ≈ AMP-PNP-Mg < ATP-EDTA < ATPγS-Mg < ATP-Mg < ATP-Vi-Mg. The order is similar for the wildtype and E-to-Q mutant transporter. However, the OF state is in general more populated in the E-to-Q mutant, which is best explained by an alteration of the energy profile caused by the mutation. This notion is best appreciated for ATP-EDTA and ATP-Mg, which could trigger an almost complete switch in the molecular ensemble of the E-to-Q mutant (Figure 5B).
(§7) The labeling efficiency of the double cysteine mutants of the transporters solubilized in detergent was measured at 25°C using an X-band Miniscope 400 EPR spectrometer (Magnettech by Freiberg Instrument). Samples were loaded into glass capillaries with the inner diameter of 0.9 mm and spectra were measured with 14 mT field sweep, 0.15 mT modulation amplitude, 2.5 mW microwave power. The calculated spin labeling efficiencies of the twelve mutants ranged between 70–90% (the second integral of the EPR spectra was calculated with the software available at spintoolbox.com). The high degree of labeling is correlated with the 0.3–0.4 modulation depths of all Q-band DEER traces presented. For DEER measurements, 10% v/v D8- glycerol was added prior to snap freezing. The range of final protein concentrations was 12 to 41 µM. 40 µL of sample were loaded in quartz tubes with 3 mm outer diameter. If not stated differently, samples were incubated at 25°C for 10 min (TM287/288 and MsbA) or 15 min (BmrCD) and snap frozen in liquid nitrogen. To study the effect of high physiological temperatures on the frozen dynamics of the transporter, samples were loaded in the quartz tubes, incubated for 3 min at 80°C on a heat block and snap frozen in a mixture of isopentane and liquid nitrogen to minimize the freezing time. […] The nucleotide analogs AMP-PNP-Mg and ATPγS-Mg (2.5 mM) were also prepared in the presence of 2.5 mM MgCl2. In case of ADP-Mg, 2.5 mM ADP and 2.5 mM MgCl2 were added.
(§8) Double electron-electron resonance (DEER) measurements were performed at 50 K on a Bruker ELEXSYS E580Q-AWG (arbitrary wave generator) dedicated pulse Q-band spectrometer equipped with a 150 W TWT amplifier. A 4-pulse DEER sequence with rectangular, non-selective observer and pump pulses of 14 or 16 ns length (depending on the available B1 at the sample) with 100 MHz frequency separation was used ([Polyhach et al., 2012]). Due to the coherent nature of the AWG generated pulses, a four-step phase cycling (0 – π/2 - π – 3/2π) of the pump π pulse was performed to remove unwanted effects of running echoes from the DEER trace. The evaluation of the DEER data was performed using DeerAnalysis2015 ([Jeschke et al., 2006]). The background of the primary DEER traces was corrected using stretched exponential functions with homogeneous dimensions of 1.5 to 3 for different samples. A model-free Tikhonov regularization was used to extract distance distributions from the background corrected form factors. […]

[5] = test system: TM287/288 E517Q; assay: DEER two-Gaussian fit of IF/OF populations, E-to-Q mutant of TM287/288; set-up: species or system Thermotoga maritima; settings: estimated errors 10%
Experimental: as §6, §7, §8

[6] = test system: MsbA; set-up: method as in Moeller et al., 2015; settings: single particle EM; ref Moeller et al., 2015; cited from earlier work
[7] = test system: TM287/288_E517Q^TM288; assay: Residual ATPase activity of E-to-Q mutant of TM287/288 in detergent; format: biochemical, Thermotoga maritima; settings: E-to-Q mutant of TM287/288, 25°C
Experimental: (§9) Incubation with buffers containing the same nucleotide concentration without protein served for background subtraction in these assays.

[8] = molecular target: T2, BmrCD; assay: ATPase activity of detergent-purified wildtype BmrCD; format: biochemical; settings: 25°C
[9] = molecular target: T3, BmrCD_E592Q^BmrD (Bacillus subtilis, UniProt O07549+O07550, C154A/C256A/C351A/E592Q); assay: Residual ATPase activity of E-to-Q mutant of BmrCD in detergent; format: biochemical; settings: 25°C
T3 construct: made in house; host or cells: E. coli MC1061
Experimental: as §9

[10] = test system: MsbA; assay: ATPase activity of detergent-purified MsbA; settings: ATP-Mg, 30°C
[11] = test system: Spin-labeled TM287/288; assay: ATPase activity of spin-labeled TM287/288 mutants in detergent; settings: 50°C, relative to internal wildtype control
[12] = wildtype TM287/288, AMP-PNP-Mg as nucleotide, 25°C [sic], detergent
[13] = spin-labeled pair 50^TM287-271^TM287 WT
[14] = spin-labeled pair 131^TM288-248^TM288 WT
[15] = spin-labeled pair 460^TM287-363^TM288 WT
[16] = spin-labeled pair 50^TM287-271^TM287 E517Q
[17] = spin-labeled pair 131^TM288-248^TM288 E517Q
[18] = spin-labeled pair 460^TM287-363^TM288 E517Q
[19] = wildtype TM287/288, ATP-Mg, 25°C, detergent
[20] = wildtype TM287/288, ATP-Mg, 50°C, detergent
[21] = wildtype BmrCD, ATP-Mg, detergent
[22] = BmrCD E592Q^BmrD, ATP-Mg, detergent

T3 sequence (O07550 whole entry): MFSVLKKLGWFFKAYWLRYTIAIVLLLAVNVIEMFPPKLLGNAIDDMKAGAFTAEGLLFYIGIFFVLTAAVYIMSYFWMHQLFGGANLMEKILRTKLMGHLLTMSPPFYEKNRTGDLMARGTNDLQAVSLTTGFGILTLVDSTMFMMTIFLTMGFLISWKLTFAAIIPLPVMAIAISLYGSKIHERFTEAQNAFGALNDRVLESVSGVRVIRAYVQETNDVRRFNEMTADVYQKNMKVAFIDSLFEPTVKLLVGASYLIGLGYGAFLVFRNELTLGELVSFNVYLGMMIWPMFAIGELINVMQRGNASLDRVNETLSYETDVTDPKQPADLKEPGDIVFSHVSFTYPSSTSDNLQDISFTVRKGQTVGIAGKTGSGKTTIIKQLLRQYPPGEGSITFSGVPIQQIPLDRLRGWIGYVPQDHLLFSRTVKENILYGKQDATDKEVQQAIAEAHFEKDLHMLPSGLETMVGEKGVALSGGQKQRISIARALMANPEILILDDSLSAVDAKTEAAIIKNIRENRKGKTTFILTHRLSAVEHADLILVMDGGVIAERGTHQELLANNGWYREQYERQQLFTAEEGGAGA
T3 sequence (O07549 whole entry C154A/C256A/C351A/E592Q): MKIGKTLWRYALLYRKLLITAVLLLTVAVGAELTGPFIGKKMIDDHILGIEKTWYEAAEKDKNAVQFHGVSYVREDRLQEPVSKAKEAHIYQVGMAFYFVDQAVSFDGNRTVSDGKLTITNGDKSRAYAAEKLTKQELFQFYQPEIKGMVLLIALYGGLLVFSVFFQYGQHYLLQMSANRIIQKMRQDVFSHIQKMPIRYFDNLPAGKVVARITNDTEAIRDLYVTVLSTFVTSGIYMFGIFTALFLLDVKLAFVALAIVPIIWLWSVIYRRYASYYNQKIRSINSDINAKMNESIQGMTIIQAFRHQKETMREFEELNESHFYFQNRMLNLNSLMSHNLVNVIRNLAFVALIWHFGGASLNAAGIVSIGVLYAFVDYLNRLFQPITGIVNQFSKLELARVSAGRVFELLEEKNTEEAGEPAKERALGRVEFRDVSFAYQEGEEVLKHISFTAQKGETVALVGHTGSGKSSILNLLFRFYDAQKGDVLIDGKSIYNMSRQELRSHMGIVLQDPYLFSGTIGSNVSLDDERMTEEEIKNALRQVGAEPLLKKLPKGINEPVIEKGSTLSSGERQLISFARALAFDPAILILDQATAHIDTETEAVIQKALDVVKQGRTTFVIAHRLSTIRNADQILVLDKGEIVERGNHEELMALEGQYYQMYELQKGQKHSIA
T2 sequence (O07550 whole entry): as the sequence (O07550 whole entry) above
T2 sequence (O07549 whole entry C154A/C256A/C351A): as the sequence (O07549 whole entry C154A/C256A/C351A/E592Q) above, with Q592E counted along it

Nc1ncnc2c1ncn2[C@@H]1O[C@H](COP(=O)(O)OP(=O)(O)NP(=O)(O)O)[C@@H](O)[C@H]1O [AMP-PNP]
cleavage of AMP-PNP (sensitivity of assay) ([1]; wildtype TM287/288, AMP-PNP as nucleotide): < 0.01 Pi min^−1 | ATPase activity (hydrolysis of AMP-PNP) [1, 12]: <0.1 nmol Pi/min/mg protein | ATPase activity, % of wildtype (hydrolysis of AMP-PNP) [1, 12]: <0.005% | Turnover per transporter (hydrolysis of AMP-PNP) [1, 12]: <0.01 min⁻¹ | IC50 ([2]; TM287/288, 25°C): 179 ± 75 µM | Ki ([2]; TM287/288, 25°C): 1.17 ± 0.51 µM | IC50 ([2]; TM287/288, 50°C): 16.1 ± 1.6 µM | Ki ([2]; TM287/288, 50°C): 0.246 ± 0.042 µM | IC50 ([3]; 2500 µM ATP, read-out: IC50): 174 ± 24 µM | Ki ([3]; calculated from IC50 and Km, read-out: Ki): 21 ± 3.2 µM | IF frac [4, 13]: 85.4% | OF frac [4, 13]: 14.6% | IF frac [4, 14]: 100% | OF frac [4, 14]: 0% | IF frac [4, 15]: 90.7% | OF frac [4, 15]: 9.3% | IF frac [5, 16]: 64.9% | OF frac [5, 16]: 35.1% | IF frac [5, 17]: 100% | OF frac [5, 17]: 0% | IF frac [5, 18]: 65.8% | OF frac [5, 18]: 34.2% | fraction of outward-facing MsbA [6]: 41%

Nc1ncnc2c1ncn2[C@@H]1O[C@H](COP(=O)(O)OP(=O)(O)OP(=O)(O)O)[C@@H](O)[C@H]1O [ATP]
Km ([1]; TM287/288, 25°C): 3.27 ± 0.42 µM | Km ([1]; TM287/288, 50°C): 7.78 ± 1.1 µM | turnover rate ([1]; wildtype TM287/288, ATP-Mg, 25°C): 11 ATP min^−1 | ATPase activity [1, 19]: 86.1 ± 2.5 nmol Pi/min/mg protein | Turnover per transporter [1, 19]: 11.4 min⁻¹ | ATPase activity [1, 20]: 2141 ± 67 nmol Pi/min/mg protein | Turnover per transporter [1, 20]: 284 min⁻¹ | ATPase turnover rate [7]: 0.022 ATP min^−1 | Km ([8]; read-out: Km for ATP, BmrCD): 343 ± 24 µM | ATPase activity [8, 21]: 22.9 ± 0.5 nmol Pi/min/mg protein | Turnover per transporter [8, 21]: 3.24 min⁻¹ | ATPase activity [9, 22]: 0.633 ± 0.053 nmol Pi/min/mg protein | ATPase activity, % of wildtype [9, 22]: 2.76% | Turnover per transporter [9, 22]: 0.0896 min⁻¹ | turnover rate ([9]; BmrCD carrying the E-to-Q mutation): 0.09 ATP min^−1 | IF frac [4, 13]: 36.7% | OF frac [4, 13]: 63.3% | IF frac [4, 14]: 56.8% | OF frac [4, 14]: 43.2% | IF frac [4, 15]: 25.7% | OF frac [4, 15]: 74.3% | IF frac [5, 16]: 5.79% | OF frac [5, 16]: 94.21% | IF frac [5, 17]: 24.9% | OF frac [5, 17]: 75.1% | IF frac [5, 18]: 13% | OF frac [5, 18]: 87% | ATPase activity, % of wildtype ([10]; MsbA 561^MsbA): 90.4% | Turnover per transporter ([10]; MsbA 561^MsbA): 16.6 min⁻¹ | ATPase activity ([10]; wildtype MsbA): 135 ± 9 nmol Pi/min/mg protein | Turnover per transporter ([10]; wildtype MsbA): 18.4 min⁻¹ | ATPase activity, % of wildtype ([11]; spin-labeled 131^TM288/248^TM288, ATP-Mg): 156* % | ATPase activity, % of wildtype ([11]; spin-labeled 150^TM287/295^TM288, ATP-Mg): 112* % | ATPase activity, % of wildtype ([11]; spin-labeled 231^TM287/304^TM287, ATP-Mg): 146* % | ATPase activity, % of wildtype ([11]; spin-labeled 350^TM287/475^TM288, ATP-Mg): 193* % | ATPase activity, % of wildtype ([11]; spin-labeled 460^TM287/363^TM288, ATP-Mg): 212* %
